Data: PubChem BioAssay (NCI)
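Method: 48-hour compound exposure of cells in 96-well plates, five concentrations, linear interpolation of endpoints. At the TGI there is no net growth.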

Legend:
Test in all cases: NCI anticancer screen, dose series, 48 h
K-562 leukemia = system: K-562 leukemia
UO-31 renal = system: UO-31 renal
DLD-1 colon = system: DLD-1 colon
COLO 205 colon = system: COLO 205 colon
A549 NSCLC = system: A549 NSCLC
M14 melanoma = system: M14 melanoma
DMS 273 small cell lung = system: DMS 273 small cell lung
786-0 renal = system: 786-0 renal
MOLT-4 leukemia = system: MOLT-4 leukemia
HL-60(TB) leukemia = system: HL-60(TB) leukemia
SK-MEL-2 melanoma = system: SK-MEL-2 melanoma
NCI-H23 lung = system: NCI-H23 lung
NCI-H522 lung = system: NCI-H522 lung
HOP-18 NSCLC = system: HOP-18 NSCLC
SNB-19 CNS = system: SNB-19 CNS
HCC-2998 colon = system: HCC-2998 colon
HT29 colon = system: HT29 colon
SN12C renal = system: SN12C renal
KM12 colon = system: KM12 colon
CAKI-1 renal = system: CAKI-1 renal
OVCAR-8 ovarian = system: OVCAR-8 ovarian
MALME-3M melanoma = system: MALME-3M melanoma
UACC-257 melanoma = system: UACC-257 melanoma
IGROV1 ovarian = system: IGROV1 ovarian
ACHN renal = system: ACHN renal
SF-539 CNS = system: SF-539 CNS
HOP-62 NSCLC = system: HOP-62 NSCLC
UACC-62 melanoma = system: UACC-62 melanoma
XF 498 CNS = system: XF 498 CNS
TK-10 renal = system: TK-10 renal
M19-MEL melanoma = system: M19-MEL melanoma
RXF 393 renal = system: RXF 393 renal
A498 renal = system: A498 renal
DMS 114 small cell lung = system: DMS 114 small cell lung
U251 CNS = system: U251 CNS
RPMI-8226 leukemia = system: RPMI-8226 leukemia
EKVX NSCLC = system: EKVX NSCLC
OVCAR-5 ovarian = system: OVCAR-5 ovarian
NCI-H226 lung = system: NCI-H226 lung
SW-620 colon = system: SW-620 colon
SK-OV-3 ovarian = system: SK-OV-3 ovarian
CCRF-CEM leukemia = system: CCRF-CEM leukemia
NCI-H460 lung = system: NCI-H460 lung
LOX IMVI melanoma = system: LOX IMVI melanoma
SK-MEL-5 melanoma = system: SK-MEL-5 melanoma
SF-295 CNS = system: SF-295 CNS
HCT-116 colon = system: HCT-116 colon
SK-MEL-28 melanoma = system: SK-MEL-28 melanoma
SNB-78 CNS = system: SNB-78 CNS
KM20L2 colon = system: KM20L2 colon
SNB-75 CNS = system: SNB-75 CNS
OVCAR-4 ovarian = system: OVCAR-4 ovarian
HOP-92 NSCLC = system: HOP-92 NSCLC
LXFL 529 NSCLC = system: LXFL 529 NSCLC
SF-268 CNS = system: SF-268 CNS
HCT-15 colon = system: HCT-15 colon
OVCAR-3 ovarian = system: OVCAR-3 ovarian

Measured: TGI

CCN1C[C@]2(C)CC[C@H](OC)C34C1C([C@H](OC(C)=O)[C@@H]32)[C@@]1(OC)C[C@H](OC)[C@H]2C[C@@H]4[C@@H]1[C@H]2O
not listed: OVCAR-3 ovarian
> 100 µM: all other assays above

CC(=O)O[C@H]1CCC2[C@@H]3CCC4=C(O)C(=O)C(C#N)C[C@]4(C)C3CC[C@@]21C (stereo partly drawn)
81.1 µM: DMS 114 small cell lung
85.3 µM: HL-60(TB) leukemia
90.9 µM: OVCAR-4 ovarian
71.1 µM: SK-MEL-5 melanoma
8.33 µM: HOP-92 NSCLC
72.1 µM: SNB-75 CNS
0.891 µM: A498 renal
84.4 µM: COLO 205 colon
not listed: NCI-H522 lung | HOP-18 NSCLC | CAKI-1 renal
> 100 µM: all other assays above

CC1=C(C(=O)NCc2ccccc2)C(c2ccc([N+](=O)[O-])cc2)C(C(=O)NCc2ccccc2)=C(C)N1
60.6 µM: HCT-116 colon
52.7 µM: M19-MEL melanoma
93.5 µM: OVCAR-5 ovarian
49.3 µM: HL-60(TB) leukemia
54 µM: KM20L2 colon
64.6 µM: UACC-62 melanoma
48.5 µM: M14 melanoma
89.7 µM: ACHN renal
83.5 µM: COLO 205 colon
73.6 µM: HOP-92 NSCLC
33.9 µM: HT29 colon
47.9 µM: OVCAR-4 ovarian
44.1 µM: LOX IMVI melanoma
86.5 µM: RXF 393 renal
not listed: MOLT-4 leukemia | RPMI-8226 leukemia | SK-OV-3 ovarian | CCRF-CEM leukemia
> 100 µM: all other assays above
